Measurements from patent US9352015B2, “Antimicrobial peptides” (priority 2009, dated 2016).
Converted amounts (≈) assume the structure as drawn. “Also recorded” adds a separate entry of the source. Like-named read-outs stand apart in the source and are kept apart here. Where a SMILES comes first, the peptide text is derived from it.

Assays:
[1] = RP-HPLC temperature profiling (peptide self-association parameter PA); assay type: physicochemical; conditions: enantiomer pairs of V681 analogs, 5° C. to 80° C., relative to peptide C
How it was run: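 Peptide retention was profiled by RP-HPLC at pH 2 from 5 °C to 80 °C in 3 °C increments, using a linear gradient of 0.5% acetonitrile/min. The monomeric random-coil control peptide C profile was subtracted. PA is the maximum change in retention time relative to control C; higher PA means greater self-association.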

human erythrocytes [2] = conditions: WO 2006/065977, cited from earlier work
human erythrocytes [3] = experiment: Hemolytic activity against human erythrocytes (HC50 / MHC, microtiter dilution); assay type: cell-based; conditions: V681 analog studies
Gram-negative bacteria = experiment: MIC against Gram-negative bacteria (V681 analog studies); assay type: cell-based
Description: Minimal inhibitory concentrations (MICs) are determined using a standard microtiter dilution method, with 3 sets of determinations, in LB (Luria-Bertani) no-salt medium (10 g of tryptone and 5 g of yeast extract per liter). In some cases, Mueller Hinton (MH) medium or Brain Heart Infusion (BHI) medium is used.
Briefly, cells were grown overnight at 37° C. in LB and diluted in the same medium. Serial dilutions of the peptides are added to the microtiter plates in a volume of 100 μl followed by 10 μl of bacteria to give a final inoculum of 5×10^5 colony-forming units/ml. Plates are incubated at 37° C. for 24 hours and MICs determined as the lowest peptide concentration that inhibited growth. Alternatively, minimal inhibitory concentrations are determined using a standard microtiter dilution method in a Mueller-Hinton (MH) medium. Briefly, cells are grown overnight at 37° C. in MH broth and diluted in the same medium. In some cases, serial dilutions of the peptides are added to the microtiter plates in a volume of 100 μl followed by 10 μl of bacteria to give a final inoculum of 1×10^5 colony-forming units/ml. Plates are incubated at 37° C. for 24 hours and MICs are determined as the lowest peptide concentration that inhibited growth.

[4] = RP-HPLC retention as measure of overall peptide hydrophobicity; assay type: physicochemical; conditions: 80° C.
Description: Crude and purified peptides were analyzed on an Agilent 1100 series liquid chromatograph (Little Falls, Del.). Runs were performed on a Zorbax 300 SB-C8 column (150×2.1 mm I.D.; 5 μm particle size, 300 Å pore size) from Agilent Technologies using linear AB gradient (1% acetonitrile/min) and a flow rate of 0.25 ml/min, where eluant A was 0.2% aqueous TFA, pH 2 and eluant B was 0.2% TFA in acetonitrile.

human erythrocytes [5] = experiment: Hemolytic activity against human erythrocytes (HC50 / MHC, microtiter dilution); assay type: cell-based
Description: Hemoglobin release was determined spectrophotometrically at 570 nm. The hemolytic activity was determined as the peptide concentration that caused 50% hemolysis of erythrocytes after 18 h (HC50). […] HC50 was determined by a plot of peptide concentration versus percent lysis.

[6] = Circular dichroism spectroscopy (helical structure); assay type: physicochemical
[7] = 50% TFE in 0.05% TFA; cited from earlier work

| SMILES | PA (peptide self-association parameter) [1] | Hemolytic activity (human erythrocytes [2]; after 12 hours) | Hemolytic activity (human erythrocytes [2]; after 18 hours) | Hemolytic activity, minimal hemolytic concentration (MHC) (human erythrocytes [3]) | MIC against Gram-negative bacteria (Gram-negative bacteria) | Change in hydrophobicity (retention time) relative to NVL (V681) ([4]; non-polar face substitution) | Fold decrease in hemolytic activity compared to V681 (human erythrocytes [5]) | [θ]222 molar ellipticity ([6]; 50% TFE) | α-helical content ([6]; 50% TFE) | α-helical content ([6]; benign conditions) | [θ]222 molar ellipticity ([6]; benign conditions (100 mM KCl, 50 mM aq. PO4, pH 7)) | Transition temperature Tm (50% of α-helical structure denatured) [7] | Change in hydrophobicity (retention time) relative to PVL ([4]; polar face substitution) |
| --- | --- | --- | --- | --- | --- | --- | --- | --- | --- | --- | --- | --- | --- |
| CC[C@H](C)[C@H](NC(=O)[C@H](C)NC(=O)[C@H](CCCCN)NC(=O)[C@H](CC(C)C)NC(=O)[C@H](C)NC(=O)[C@@H](NC(=O)[C@H](Cc1c[nH]cn1)NC(=O)[C@H](CC(C)C)NC(=O)[C@@H](NC(=O)[C@@H](NC(=O)[C@H](CCCCN)NC(=O)[C@@H](C)NC(=O)[C@H](C)NC(=O)[C@H](CO)NC(=O)[C@H](CCCCN)NC(=O)[C@H](Cc1ccccc1)NC(=O)[C@@H](NC(=O)[C@H](CCCCN)NC(=O)[C@H](CC(C)C)NC(=O)[C@H](Cc1ccccc1)NC(=O)[C@H](CO)NC(=O)[C@H](CCCCN)NC(=O)[C@H](Cc1c[nH]c2ccccc12)NC(=O)[C@H](CCCCN)NC(C)=O)[C@@H](C)O)[C@@H](C)O)C(C)C)[C@@H](C)O)C(=O)N[C@@H](CO)C(=O)N[C@@H](CO)C(N)=O [NAD] (HELM PEPTIDE1{[ac].K.W.K.S.F.L.K.T.F.K.S.A.[dA].K.T.V.L.H.T.A.L.K.A.I.S.S.[am]}$$$$V2.0) | 4.1 | 250 µg/mL | 31.3 µg/mL |  |  |  |  |  |  |  |  |  |  |
| CC[C@H](C)[C@H](NC(=O)[C@H](C)NC(=O)[C@H](CCCCN)NC(=O)[C@H](CC(C)C)NC(=O)[C@H](C)NC(=O)[C@@H](NC(=O)[C@H](Cc1cnc[nH]1)NC(=O)[C@H](CC(C)C)NC(=O)[C@@H](NC(=O)[C@@H](NC(=O)[C@H](CCCCN)NC(=O)[C@H](CCCCN)NC(=O)[C@H](C)NC(=O)[C@H](CO)NC(=O)[C@H](CCCCN)NC(=O)[C@H](Cc1ccccc1)NC(=O)[C@@H](NC(=O)[C@H](CCCCN)NC(=O)[C@H](CC(C)C)NC(=O)[C@H](Cc1ccccc1)NC(=O)[C@H](CO)NC(=O)[C@H](CCCCN)NC(=O)[C@H](Cc1c[nH]c2ccccc12)NC(=O)[C@H](CCCCN)NC(C)=O)[C@@H](C)O)[C@@H](C)O)C(C)C)[C@@H](C)O)C(=O)N[C@@H](CO)C(=O)N[C@@H](CO)C(N)=O [NKL] | 2.1 |  |  | undetectable level; also recorded: non-hemolytic; also recorded: no detectable hemolytic activity; also recorded: no measurable activity | 3.1 mg/L (≈ 1.04 µM) | -12.61 min | > 32 fold |  |  |  |  |  |  |
| CC[C@H](C)[C@H](NC(=O)[C@H](C)NC(=O)[C@H](CCCCN)NC(=O)[C@H](CC(C)C)NC(=O)[C@H](C)NC(=O)[C@@H](NC(=O)[C@H](Cc1c[nH]cn1)NC(=O)[C@H](CC(C)C)NC(=O)[C@@H](NC(=O)[C@@H](NC(=O)[C@H](CCCCN)NC(=O)[C@@H](NC(=O)[C@H](C)NC(=O)[C@H](CO)NC(=O)[C@H](CCCCN)NC(=O)[C@H](Cc1ccccc1)NC(=O)[C@@H](NC(=O)[C@H](CCCCN)NC(=O)[C@H](CC(C)C)NC(=O)[C@H](Cc1ccccc1)NC(=O)[C@H](CO)NC(=O)[C@H](CCCCN)NC(=O)[C@H](Cc1c[nH]c2ccccc12)NC(=O)[C@H](CCCCN)NC(C)=O)[C@@H](C)O)C(C)C)[C@@H](C)O)C(C)C)[C@@H](C)O)C(=O)N[C@@H](CO)C(=O)N[C@@H](CO)C(N)=O [Peptide V681] (Ac-KWKSFLKTFKSAVKTVLHTALKAISS-NH2) | 7.2 |  |  | 15.6 µg/mL |  |  |  | −27,300 | 94% | 45% | −12,900 | 79.3 °C | -0.35 min |
